Assay results taken from ChEMBL document CHEMBL4321885, “Biomimetic Macrocyclic Inhibitors of Human Cathepsin D: Structure-Activity Relationship and Binding Mode Analysis” (J Med Chem, 2020).
pIC50: −log10 of the molar value. Active and inactive are the calls of the source. The rule behind the calls is not given here.

Legend:
Sus scrofa = species: Sus scrofa; assay: Inhibition of porcine pepsin at 50 nM using Abz-Lys-Pro-Ala-Glu-Phe-Nph-Ala-Leu as substrate preincubated for 10 mins followed by substrate addition and measured by FRET assay
[1] = molecular target: Beta-secretase 1 (Homo sapiens) (UniProt P56817); assay: Inhibition of recombinant human C-terminal 10His-tagged BACE1 expressed in mouse NS0 cells at 5 uM using Mca-Ser-Glu-Val-Asn-Leu-Asp-Ala-Glu-Phe-Arg-Lys(Dnp)-Arg-Arg as substrate preincubated for 10 mins followed by substrate addition and measured by FRET assay
Sequence of Beta-secretase 1 (Homo sapiens) (P56817 whole entry, the tested form may be a part): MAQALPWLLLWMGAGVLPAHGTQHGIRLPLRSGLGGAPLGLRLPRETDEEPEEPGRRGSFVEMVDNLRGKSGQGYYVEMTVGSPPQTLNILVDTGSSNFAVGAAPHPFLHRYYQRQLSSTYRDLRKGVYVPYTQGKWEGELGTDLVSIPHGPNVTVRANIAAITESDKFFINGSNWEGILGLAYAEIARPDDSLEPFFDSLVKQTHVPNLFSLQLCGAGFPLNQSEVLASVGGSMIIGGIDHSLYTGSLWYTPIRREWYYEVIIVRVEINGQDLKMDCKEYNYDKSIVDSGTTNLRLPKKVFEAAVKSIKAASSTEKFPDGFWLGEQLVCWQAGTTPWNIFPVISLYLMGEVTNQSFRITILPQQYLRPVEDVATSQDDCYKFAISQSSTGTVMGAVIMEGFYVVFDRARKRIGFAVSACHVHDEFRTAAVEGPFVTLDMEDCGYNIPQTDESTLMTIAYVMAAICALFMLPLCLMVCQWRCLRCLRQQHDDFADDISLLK

Cathepsin D = Cathepsin D (Homo sapiens, UniProt P07339); assay: Inhibition of human placenta CatD using Abz-Lys-Pro-Ala-Glu-Phe-Nph-Ala-Leu as substrate preincubated for 10 mins followed by substrate addition and measured by FRET assay
Sequence of Cathepsin D (P07339 65-162 limits assumed): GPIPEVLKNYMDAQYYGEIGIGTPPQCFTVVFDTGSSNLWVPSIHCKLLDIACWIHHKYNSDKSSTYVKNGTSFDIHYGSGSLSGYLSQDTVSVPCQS
Sequence of Cathepsin D (P07339 169-412 limits assumed): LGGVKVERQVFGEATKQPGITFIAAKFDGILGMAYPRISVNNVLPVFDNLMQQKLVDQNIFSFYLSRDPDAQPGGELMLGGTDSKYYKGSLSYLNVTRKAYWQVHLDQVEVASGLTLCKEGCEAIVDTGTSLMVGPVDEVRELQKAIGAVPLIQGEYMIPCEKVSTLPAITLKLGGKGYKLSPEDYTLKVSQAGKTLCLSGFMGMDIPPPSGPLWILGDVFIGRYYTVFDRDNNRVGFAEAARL

[2] = molecular target: Saccharopepsin (Saccharomyces cerevisiae S288c) (UniProt P07267); assay: Inhibition of Baker's yeast proteinase A at 50 nM using Abz-Lys-Pro-Ala-Glu-Phe-Nph-Ala-Leu as substrate preincubated for 10 mins followed by substrate addition and measured by FRET assay
Sequence of Saccharopepsin (Saccharomyces cerevisiae S288c) (P07267 whole entry): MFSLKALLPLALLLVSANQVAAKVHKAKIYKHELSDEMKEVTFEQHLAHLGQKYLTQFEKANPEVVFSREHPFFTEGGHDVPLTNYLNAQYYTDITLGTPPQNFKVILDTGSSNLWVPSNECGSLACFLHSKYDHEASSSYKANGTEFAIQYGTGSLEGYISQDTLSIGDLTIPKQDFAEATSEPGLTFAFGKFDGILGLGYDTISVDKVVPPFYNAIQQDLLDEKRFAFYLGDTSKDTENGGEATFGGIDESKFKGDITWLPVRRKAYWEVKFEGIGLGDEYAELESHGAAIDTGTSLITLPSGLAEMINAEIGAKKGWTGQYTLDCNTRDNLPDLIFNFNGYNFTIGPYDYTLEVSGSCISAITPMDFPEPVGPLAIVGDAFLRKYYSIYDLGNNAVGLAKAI

[3] = molecular target: Beta-secretase 1 (Homo sapiens) (UniProt P56817); assay: Inhibition of recombinant human C-terminal 10His-tagged BACE1 expressed in mouse NS0 cells at 50 nM using Mca-Ser-Glu-Val-Asn-Leu-Asp-Ala-Glu-Phe-Arg-Lys(Dnp)-Arg-Arg as substrate preincubated for 10 mins followed by substrate addition and measured by FRET assay
Renin (Homo sapiens) [4] = molecular target: T1, Renin (Homo sapiens) (UniProt P00797); assay: Inhibition of recombinant human N-terminal FLAG-tagged renin (67 to 406 residues) expressed in HEK cells at 50 nM using Arg-Glu(EDANS)-Ile-His-Pro-Phe-His-Leu-Val-Ile-His-Thr-Lys(Dabcyl)-Arg as substrate preincubated for 10 mins followed by substrate addition and measured by FRET assay
T1 sequence (whole entry): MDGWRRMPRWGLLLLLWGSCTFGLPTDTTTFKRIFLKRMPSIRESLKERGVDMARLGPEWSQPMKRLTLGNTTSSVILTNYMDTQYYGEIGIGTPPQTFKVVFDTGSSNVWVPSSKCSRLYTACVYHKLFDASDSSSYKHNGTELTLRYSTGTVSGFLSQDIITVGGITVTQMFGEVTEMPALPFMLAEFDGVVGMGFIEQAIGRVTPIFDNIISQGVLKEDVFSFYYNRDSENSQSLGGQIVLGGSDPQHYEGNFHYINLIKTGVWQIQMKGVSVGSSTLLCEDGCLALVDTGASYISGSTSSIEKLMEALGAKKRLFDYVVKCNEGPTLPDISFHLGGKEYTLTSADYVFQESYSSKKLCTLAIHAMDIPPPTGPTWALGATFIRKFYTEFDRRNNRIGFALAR

Ixodes ricinus = assay: Inhibition of Ixodes ricinus CatD expressed in Escherichia coli BL21(DE3) at 50 nM using Abz-Lys-Pro-Ala-Glu-Phe-Nph-Ala-Leu as substrate preincubated for 10 mins followed by substrate addition and measured by FRET assay
Renin (Homo sapiens) [5] = molecular target: T1, Renin (Homo sapiens); assay: Inhibition of recombinant human N-terminal FLAG-tagged renin (67 to 406 residues) expressed in HEK cells at 5 uM using Arg-Glu(EDANS)-Ile-His-Pro-Phe-His-Leu-Val-Ile-His-Thr-Lys(Dabcyl)-Arg as substrate preincubated for 10 mins followed by substrate addition and measured by FRET assay
[6] = molecular target: Protease (Human immunodeficiency virus 1) (UniProt Q9YQ12); assay: Inhibition of HIV1 protease at 50 nM using Abz-Tyr-Ile-Nle-Nph-Gln-Arg as substrate preincubated for 10 mins followed by substrate addition and measured by FRET assay
Sequence of Protease (Human immunodeficiency virus 1) (Q9YQ12 as listed by the source): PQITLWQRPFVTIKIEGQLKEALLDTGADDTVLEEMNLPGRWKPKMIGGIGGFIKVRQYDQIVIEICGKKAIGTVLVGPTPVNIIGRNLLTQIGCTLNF

[7] = molecular target: Protease (Human immunodeficiency virus 1) (UniProt Q9YQ12); assay: Inhibition of HIV1 protease at 5 uM using Abz-Tyr-Ile-Nle-Nph-Gln-Arg as substrate preincubated for 10 mins followed by substrate addition and measured by FRET assay

Compound | inhibition (Sus scrofa) | inhibition [1] | pIC50 (Cathepsin D) | inhibition [2] | inhibition [3] | inhibition (Renin (Homo sapiens) [4]) | inhibition (Ixodes ricinus) | inhibition (Renin (Homo sapiens) [5]) | inhibition [6] | inhibition [7]
CC(=O)NCCCC[C@@H]1NC(=O)C[C@H](O)[C@H](Cc2ccccc2)NC(=O)CCCCCCCCCCCNC1=O | Active | Active | 7.80 | Active | inactive | inactive | Active | Active | inactive | Active
O=C1C[C@H](O)[C@H](Cc2ccccc2)NC(=O)CCCCCCCCCCCNC(=O)[C@H](c2ccccc2)N1 | Active | Active | 7.57 | Active | inactive | inactive | Active | Active | inactive | Active
CC(C)C[C@@H]1NC(=O)CCCCCCCCCCCNC(=O)[C@H](C(C)C)NC(=O)C[C@@H]1O | Active | Active | 7.66 | Active | inactive | inactive | Active | Active | inactive | Active
CC(C)[C@@H]1NC(=O)C[C@H](O)[C@H](Cc2ccccc2)NC(=O)CCCCCCCCCCNC1=O |  | Active | 7.40 | Active | inactive | inactive | Active | Active | inactive | Active
C[C@@H](O)[C@@H]1NC(=O)C[C@H](O)[C@H](Cc2ccccc2)NC(=O)CCCCCCCCCCCNC1=O |  | Active | 6.30 | Active | inactive | inactive | Active | Active | inactive | Active

Now those with a higher pIC50 (Cathepsin D), led by results:

inhibition (Sus scrofa) | inhibition [1] | pIC50 (Cathepsin D) | inhibition [2] | inhibition [3] | inhibition (Renin (Homo sapiens) [4]) | inhibition (Ixodes ricinus) | inhibition (Renin (Homo sapiens) [5]) | inhibition [6] | inhibition [7] | Compound
Active | Active | 7.82 | Active | inactive | inactive | Active | Active | inactive | Active | O=C1C[C@H](O)[C@H](Cc2ccccc2)NC(=O)CCCCCCCCCCCNC(=O)[C@H](Cc2ccccc2)N1
Active | Active | 7.96 | Active | inactive | inactive | Active | Active | inactive | Active | CC(C)[C@@H]1NC(=O)C[C@H](O)[C@H](Cc2ccccc2)NC(=O)CCCCCCCCCCCCCNC1=O
Active | Active | 8.05 | Active | inactive | inactive | Active | Active | inactive | Active | CC(C)[C@@H]1NC(=O)C[C@H](O)[C@H](CC2CCCCC2)NC(=O)CCCCCCCCCCCNC1=O
 | Active | 8.33 | Active | inactive | inactive | Active | Active | inactive | Active | CC(C)[C@@H]1NC(=O)C[C@H](O)[C@H](Cc2ccc(F)cc2)NC(=O)CCCCCCCCCCCNC1=O
Active | Active | 8.42 | Active | inactive | inactive | Active | Active | inactive | Active | CC[C@@H](C)[C@@H]1NC(=O)C[C@H](O)[C@H](Cc2ccccc2)NC(=O)CCCCCCCCCCCNC1=O
